Like-named read-outs stand apart in the source and are kept apart here. Blank lines part the entries; values can stand above or below the compound they belong to.
What was measured:
[1] = 50 psig, 0.05 mol/liter acid salt, 0.5 mol/liter NaCl
From the text: In each case, the solution was maintained at a pressure of 50 psig during each test. The pH of the solution was maintained substantially constant by adding portions of 0.1 mol/liter sodium bicarbonate solution to the system while the hydrolysis was proceeding. Each acid generator solution consisted of water containing 0.5 mol/liter sodium chloride and 0.05 mols/liter of the indicated halocarboxylic acid salt.
*^1 This is the time, in hours, required for the acid generator to be
onehalf reacted to form CO2 or acid.

[2] = Best estimate of applicable temperature range of CO2 generators (Table I); type: physicochemical; conditions: best estimate of the applicable temperature range as CO2 generator

Compound: CC(Cl)C(=O)O (stereo not drawn) [2-Chloropropionic acid]
Half Life, t1/2 ([1]; Test 25, 130 °F, pH 6.2): 73.1 h | Half Life, t1/2 ([1]; Test 26, 114 °F, pH 6.2): 598.5 h

Compound: CC(Cl)CC(=O)O (stereo not drawn) [3-Chlorobutyric acid]
Half Life, t1/2 ([1]; Test 22, 125 °F, pH 6.2): 13.2 h | Half Life, t1/2 ([1]; Test 23, 99 °F, pH 6.2): 29.2 h | Half Life, t1/2 ([1]; Test 24, 102 °F, pH 6.2): 80.0 h

Compound: O=C(O)CBr [Bromoacetic acid]
Half Life, t1/2 ([1]; Test 16, 167 °F, pH 5.5): 17.3 h | Half Life, t1/2 ([1]; Test 17, 166 °F, pH 7.0): 12.5 h | Half Life, t1/2 ([1]; Test 18, 143 °F, pH 7.0): 171.4 h | Half Life, t1/2 ([1]; Test 19, 156 °F, pH 6.2): 32.6 h | Half Life, t1/2 ([1]; Test 20, 140 °F, pH 6.2): 136.9 h | Half Life, t1/2 ([1]; Test 21, 124 °F, pH 6.2): 319.2 h

Compound: O=C(O)CCl [Monochloroacetic acid]
Half Life, t1/2 ([1]; Test 8, 182 °F, pH 7.0): 127.9 h | Half Life, t1/2 ([1]; Test 9, 198 °F, pH 7.0): 49.4 h

The remaining lines, values ahead:

Half Life, t1/2 ([1]; Test 1, 138 °F, pH 8.0): 43.5 h | Half Life, t1/2 ([1]; Test 2, 140 °F, pH 7.0): 16.1 h | Half Life, t1/2 ([1]; Test 3, 133 °F, pH 6.2): 27.9 h | Half Life, t1/2 ([1]; Test 4, 133 °F, pH 5.5): 30.4 h | Half Life, t1/2 ([1]; Test 5, 113 °F, pH 5.5): 114.0 h | Half Life, t1/2 ([1]; Test 6, 117 °F, pH 6.2): 95.8 h | Half Life, t1/2 ([1]; Test 7, 114 °F, pH 7.0): 130.1 h
Compound: O=C(O)CCCl [3-Chloropropionic acid]

Half Life, t1/2 ([1]; Test 10, 197 °F, pH 7.0): 111.8 h | Half Life, t1/2 ([1]; Test 11, 221 °F, pH 7.0): 23.0 h
Compound: O=C(O)C(Cl)Cl [Dichloroacetic acid]

Temperature Range [2]: > 300 °F. | Half Life, t1/2 ([1]; Test 12, 212 °F, pH 7.0): 3,113 hours | Half Life, t1/2 ([1]; Test 13, 212 °F, pH 6.2): 2,543 hours | Half Life, t1/2 ([1]; Test 14, 204 °F, pH 8.0): 3,906 hours | Half Life, t1/2 ([1]; Test 15, 251 °F, pH 8.0): 2,335 hours
Compound: O=C(O)c1ccccc1Cl [O--Chlorobenzoic acid]
